Our source for the responders and inhibition in vivo values is patent publication US8211939B2, “Isosorbide nitrates” (Lacer, S.A., priority 2008, dated 2012).

The subject of experiment [1] is thrombus formation in the carotid artery (70% FeCl3 patch). Nature of the experiment: Anti-thrombotic activity, FeCl3-induced carotid artery thrombosis. The class given is in vivo, Male Wistar rats. The note with it: Rattus norvegicus, po, % animals protected, read-out: Antithrombotic activity (% protection); for responders at 90 µmol/kg: 90 μmol/kg p.o. The procedure:
Anti-Thrombotic Activity Assessment Experimental Procedure Male Wistar rats weighing 250-300 g were used after an acclimatization period of five days, and animals were divided in groups of 8 animals each for the treatments. […] The vehicle used to dissolve the products consisted of 1% Cremophor EL 27963, 1% Tween 80 and 0.5% Methocel E-15 in distilled water. After a fasting period of 8 hours with free access to drinking water each product was given by gavage 1 hour before induction of thrombosis. Thrombus formation was induced using a patch embedded with 70% FeCl3 solution applied onto the carotid artery using the same procedure described by Feuerstein G Z et al and later modified by Kurz et al (Feuerstein G Z, et al Artherioscler. Thromb. Vasc. Biol. 1999, 19: 2554-2562, Kurz K D, et al Thromb. Res. 1990, 60:269-280). Anti-thrombotic efficacy was evaluated at different times after dosage. Rats were anesthetized with sodium pentobarbital and then placed on a dorsal position over a thermal blanket laid on a surgical board and heated at 37° C. The left carotid artery was dissected and an electromagnetic blood flow probe was placed on the artery to measure blood flow. After application of the thrombotic stimuli, blood flow was monitored for the following 30 minutes. The vessel was considered occluded by the thrombus when flow reached 0.0 ml/min. Data were analysed by contingency tables using the Graph Pad Prism Program. P values were calculated using Fisher's exact test, values of p<0.05 were considered statistically significant. Results were expressed as % animals protected.

Experiment [2] deals with coronary angina caused by coronary obstruction (35% ferric chloride patch on left anterior descending coronary artery). In words: Anti-anginal activity, ferric chloride-induced coronary angina (ECG S-wave). Conditions: Rattus norvegicus, po, rat, 90 μmol/kg p.o., vs untreated control, read-out: Antianginal activity (% inhibition of S-wave decrease). The experiment is classed as in vivo, Male Wistar rats. The procedure: Anti-Anginal Activity Assessment
Male Wistar rats weighing 250-300 g were used after an acclimatization period of five days, and animals were divided in groups of 8 for each treatment. In all experiments, rats were treated with 90 μmol/kg of each product by oral gavage using an administration volume of 10 ml/kg unless otherwise stated. The vehicle used to dissolve the products consisted of 1% Cremophor EL 27963, 1% Tween 80 and 0.5% Methocel E-15 in distilled water. […]
The procedure used to test the anti-anginal activity was that described by Hirata Y et al (Hirata Y, et al. Journal of Cardiovascular Pharmacology 1998, 31: 322-326).
After treatment, animals were anaesthetized with pentobarbital and electrodes were set for standard limb lead II electrocardiogram recording (Grass polygraph model 7, amplifier 7DA and pre-amplifier 7P1).
To induce coronary angina caused by coronary obstruction, a 35%-ferric chloride embedded mini patch was applied onto the left anterior descending coronary artery just below the left auricle. In all groups, after application of the patch, the ECG was recorded during 10 minutes. The shortening of the S-wave amplitude was measured on the recorded ECG. Data were collected with a Biopac system model MP100 connected to a Pentium PC. Results were expressed as % inhibition of S-wave decrease vs the untreated control.

Read-outs that look alike come from different tables or passages of the source.

On to `CCS(=O)(=O)[C@H]1CO[C@H]2[C@@H]1OC[C@H]2O[N+](=O)[O-]` [Ej. 7, (3R,3aS,6S,6aS)-6-(ethylsulfonyl)hexahydrofuro[3,2-b]furan-3-yl nitrate], for which the responders at 90 µmol/kg turned out to be 50% in experiment [1] (0.5 h, ½ h after dosage); 84% in experiment [1] (1 h, 1 h after dosage); 32% in experiment [1] (2 h, 2 h after dosage); 0% in experiment [1] (4 h, 4 h after dosage). Moreover, the inhibition in vivo at 90 µmol/kg in experiment [2] (1 h, 1 h) worked out at 81%; in experiment [2] (4 h, 4 h), 23%.
Turning to `CC(=O)S[C@@H]1CO[C@H]2[C@@H]1OC[C@H]2O[N+](=O)[O-]` [Ej. 10, S-(3R,3aS,6R,6aS)-6-(nitrooxy)hexahydrofuro[3,2-b]furan-3-yl ethanethioate], the responders at 90 µmol/kg is 67% in experiment [1] (0.5 h, ½ h after dosage); 75% in experiment [1] (1 h, 1 h after dosage); 83% in experiment [1] (2 h, 2 h after dosage); 40% in experiment [1] (4 h, 4 h after dosage). In addition, the inhibition in vivo at 90 µmol/kg in experiment [2] (1 h, 1 h) is 69%; in experiment [2] (4 h, 4 h), 57%.
Consider `CCS[C@@H]1CO[C@H]2[C@@H]1OC[C@H]2O[N+](=O)[O-]` [Ej. 11, (3R,3aS,6R,6aS)-6-(ethylthio)hexahydrofuro[3,2-b]furan-3-yl nitrate], for which the responders at 90 µmol/kg in experiment [1] (1 h, 1 h after dosage) was found to be 66%; in experiment [1] (4 h, 4 h after dosage), 0%. Moreover, the inhibition in vivo at 90 µmol/kg in experiment [2] (1 h, 1 h) is 41%.
For the molecule `C[S@@+]([O-])[C@H]1CO[C@H]2[C@@H]1OC[C@H]2O[N+](=O)[O-]` [Comp 6, (3R,3aS,6S,6aS)-6-((R)-methylsulfinyl)hexahydrofuro[3,2-b]furan-3-yl nitrate, reference compound], the responders at 90 µmol/kg in experiment [1] (0.5 h, ½ h after dosage) was determined as 40%; in experiment [1] (1 h, 1 h after dosage), 16%; in experiment [1] (2 h, 2 h after dosage), 0%; in experiment [1] (4 h, 4 h after dosage) it was 0%. The inhibition in vivo at 90 µmol/kg in experiment [2] (1 h, 1 h) is 48%; in experiment [2] (4 h, 4 h), 0%.
Turning to `O=[N+]([O-])O[C@@H]1CO[C@H]2[C@@H]1OC[C@@H]2S` [Comp 1, (3R,3aS,6S,6aS)-6-(mercapto)hexahydrofuro[3,2-b]furan-3-yl nitrate, reference compound], the responders at 230 µmol/kg in experiment [1] (1 h, 230 μmol/kg p.o., 1 h after dosage) turned out to be 50%. In addition, the responders at 90 µmol/kg in experiment [1] (2 h, 2 h after dosage) worked out at 32%; in experiment [1] (4 h, 4 h after dosage), 16%. Further, the inhibition in vivo at 90 µmol/kg in experiment [2] (0.5 h, ½ h) came out at 0%; in experiment [2] (1 h, 1 h), 0%; in experiment [2] (2 h, 2 h), 50%.
Turning to `CCCS[C@H]1CO[C@H]2[C@@H]1OC[C@H]2O[N+](=O)[O-]` [Ej. 2, (3R,3aS,6S,6aS)-6-(propylthio)hexahydrofuro[3,2-b]furan-3-yl nitrate], in experiment [1] (1 h, 1 h after dosage), the responders at 90 µmol/kg is 67%. The inhibition in vivo at 90 µmol/kg in experiment [2] (1 h, 1 h) amounted to 69%; in experiment [2] (4 h, 4 h), 8%.
With `CCC[S+]([O-])[C@H]1CO[C@H]2[C@@H]1OC[C@H]2O[N+](=O)[O-]` (stereo partly drawn) [Ej. 5, (3R,3aS,6S,6aS)-6-((R,S)-propylsulfinyl)hexahydrofuro[3,2-b]furan-3-yl nitrate], the responders at 90 µmol/kg in experiment [1] (0.5 h, ½ h after dosage) stood at 40%; in experiment [1] (1 h, 1 h after dosage), 76%; in experiment [1] (2 h, 2 h after dosage), 67%; in experiment [1] (4 h, 4 h after dosage), 50%. The inhibition in vivo at 90 µmol/kg in experiment [2] (1 h, 1 h) was 87%; in experiment [2] (4 h, 4 h), 58%.
